Results taken from ChEMBL document CHEMBL1781959, “Synthesis and in vitro antitumor activity of substituted quinazoline and quinoxaline derivatives: search for anticancer agent” (Eur J Med Chem, 2011).

Key:
Type in all cases: functional
[1] = test system: SNB-19; test: Anticancer activity against human SNB19 cells assessed as cell growth promotion at 10^-5 M after 48 hrs by SRB assay relative to control
[2] = test system: SNB-75; test: Anticancer activity against human SNB75 cells assessed as cell growth promotion at 10^-5 M after 48 hrs by SRB assay relative to control
[3] = test system: Malme-3M; test: Anticancer activity against human MALME-3M cells assessed as cell growth promotion at 10^-5 M after 48 hrs by SRB assay relative to control
[4] = test system: CCRF-CEM; test: Anticancer activity against human CCRF-CEM cells assessed as cell growth promotion at 10^-5 M after 48 hrs by SRB assay relative to control
[5] = test system: M14; test: Anticancer activity against human M14 cells assessed as cell growth promotion at 10^-5 M after 48 hrs by SRB assay relative to control
[6] = test system: SK-MEL-2; test: Anticancer activity against human SK-MEL-2 cells assessed as cell growth promotion at 10^-5 M after 48 hrs by SRB assay relative to control
[7] = test system: OVCAR-4; test: Anticancer activity against human OVCAR4 cells assessed as cell growth promotion at 10^-5 M after 48 hrs by SRB assay relative to control
[8] = test system: OVCAR-8; test: Anticancer activity against human OVCAR8 cells assessed as cell growth promotion at 10^-5 M after 48 hrs by SRB assay relative to control
[9] = test system: UO-31; test: Anticancer activity against human UO31 cells assessed as cell growth promotion at 10^-5 M after 48 hrs by SRB assay relative to control
[10] = test system: K562; test: Anticancer activity against human K562 cells assessed as cell growth promotion at 10^-5 M after 48 hrs by SRB assay relative to control
[11] = test system: MDA-MB-231; test: Anticancer activity against human MDA-MB-231 cells assessed as cell growth promotion at 10^-5 M after 48 hrs by SRB assay relative to control
[12] = test system: BT-549; test: Anticancer activity against human BT549 cells assessed as cell growth promotion at 10^-5 M after 48 hrs by SRB assay relative to control
[13] = test system: MDA-MB-468; test: Anticancer activity against human MDA-MB-468 cells assessed as cell growth promotion at 10^-5 M after 48 hrs by SRB assay relative to control
[14] = test system: A549; test: Anticancer activity against human A549 cells assessed as cell growth promotion at 10^-5 M after 48 hrs by SRB assay relative to control
[15] = test system: HOP-62; test: Anticancer activity against human HOP62 cells assessed as cell growth promotion at 10^-5 M after 48 hrs by SRB assay relative to control
[16] = test system: NCI-H226; test: Anticancer activity against human NCI-H226 cells assessed as cell growth promotion at 10^-5 M after 48 hrs by SRB assay relative to control
[17] = test system: NCI-H322M; test: Anticancer activity against human NCI-H322M cells assessed as cell growth promotion at 10^-5 M after 48 hrs by SRB assay relative to control
[18] = test system: NCI-H460; test: Anticancer activity against human NCI-H460 cells assessed as cell growth promotion at 10^-5 M after 48 hrs by SRB assay relative to control
[19] = test system: NCI-H522; test: Anticancer activity against human NCI-H522 cells assessed as cell growth promotion at 10^-5 M after 48 hrs by SRB assay relative to control
[20] = test system: HCT-116; test: Anticancer activity against human HCT116 cells assessed as cell growth promotion at 10^-5 M after 48 hrs by SRB assay relative to control

O=C(O)c1ccc(-n2c(-c3ccco3)nc3ccccc3c2=O)cc1
Activity [1]: 91.35%
Activity [2]: 89.2%
Activity [3]: 102.96%
Activity [4]: 87.86%
Activity [5]: 103.37%
Activity [6]: 93.19%
Activity [7]: 100.6%
Activity [8]: 104.87%
Activity [9]: 68.61%
Activity [10]: 98.25%
Activity [11]: 83.73%
Activity [12]: 100.59%
Activity [13]: 101.43%
Activity [14]: 104.77%
Activity [15]: 107.05%
Activity [16]: 78.42%
Activity [17]: 97.61%
Activity [18]: 95.38%
Activity [19]: 109.67%
Activity [20]: 99.69%

O=C(Nc1ccccc1C(=O)Nc1ccc(/C=C/c2ccc(Cl)cc2)cc1)c1ccccc1
Activity [1]: 74.25%
Activity [2]: 84.55%
Activity [3]: 91.75%
Activity [4]: 52.41%
Activity [5]: 78.5%
Activity [6]: 90.64%
Activity [7]: 85.63%
Activity [8]: 88.85%
Activity [9]: 52.88%
Activity [10]: 57.81%
Activity [11]: 81.11%
Activity [12]: 76.41%
Activity [13]: 83.46%
Activity [14]: 70.02%
Activity [15]: 105%
Activity [16]: 85.77%
Activity [17]: 89.27%
Activity [18]: 72.92%
Activity [19]: 70.95%
Activity [20]: 49.35%

O=c1c2ccccc2nc(-c2ccco2)n1O
Activity [1]: 101.58%
Activity [2]: 86.97%
Activity [3]: 122.97%
Activity [4]: 98.16%
Activity [5]: 89.53%
Activity [6]: 103.59%
Activity [7]: 114.55%
Activity [8]: 110.28%
Activity [9]: 68.92%
Activity [10]: 105.54%
Activity [11]: 93.48%
Activity [12]: 103.7%
Activity [13]: 115.34%
Activity [14]: 113.82%
Activity [15]: 112.74%
Activity [16]: 97.88%
Activity [17]: 97.18%
Activity [18]: 108.52%
Activity [20]: 105.94%

O=C(Nc1ccccc1C(=O)Nc1ccc(/C=C/c2ccc(Cl)cc2)cc1)c1ccco1
Activity [1]: 107%
Activity [2]: 71.39%
Activity [3]: 115%
Activity [4]: 103%
Activity [5]: 107%
Activity [6]: 136%
Activity [7]: 101%
Activity [8]: 100%
Activity [9]: 83.88%
Activity [10]: 95.66%
Activity [11]: 102%
Activity [12]: 127%
Activity [13]: 108%
Activity [14]: 102%
Activity [15]: 104%
Activity [16]: 105%
Activity [17]: 110%
Activity [18]: 107%
Activity [19]: 114%
Activity [20]: 108%

COc1cc(/C=C/c2ccc(NC(=O)c3ccccc3NC(=O)c3ccccc3)cc2)ccc1O
Activity [1]: 104%
Activity [2]: 85.88%
Activity [3]: 101%
Activity [4]: 79.93%
Activity [5]: 92.83%
Activity [6]: 104%
Activity [8]: 105%
Activity [9]: 68.52%
Activity [10]: 96.88%
Activity [11]: 96.74%
Activity [12]: 95.53%
Activity [13]: 95.39%
Activity [14]: 99.78%
Activity [15]: 94.69%
Activity [16]: 95.46%
Activity [17]: 91.92%
Activity [18]: 107%
Activity [19]: 99.45%
Activity [20]: 92.7%

O=C(Nc1ccccc1C(=O)Nc1ccc(/C=C/c2ccc(O)cc2)cc1)c1ccccc1
Activity [1]: 86.41%
Activity [2]: 99.47%
Activity [3]: 97.53%
Activity [4]: 40.37%
Activity [5]: 81.74%
Activity [6]: 99.47%
Activity [7]: 82.05%
Activity [8]: 86.46%
Activity [9]: 39.29%
Activity [10]: 40.21%
Activity [11]: 76.35%
Activity [12]: 65.95%
Activity [13]: 77.87%
Activity [14]: 75.71%
Activity [15]: 95.55%
Activity [16]: 79.29%
Activity [17]: 71.88%
Activity [18]: 92.1%
Activity [19]: 69.87%
Activity [20]: 70.71%

N#Cc1ccc(/C=C/c2ccc(NC(=O)c3ccccc3NC(=O)c3ccco3)cc2)cc1
Activity [1]: 111%
Activity [2]: 80%
Activity [3]: 108%
Activity [4]: 96.43%
Activity [5]: 112%
Activity [6]: 116%
Activity [7]: 100%
Activity [8]: 106%
Activity [9]: 84.8%
Activity [10]: 94.72%
Activity [11]: 94.46%
Activity [12]: 109%
Activity [13]: 108%
Activity [14]: 101%
Activity [15]: 111%
Activity [16]: 107%
Activity [17]: 102%
Activity [18]: 116%
Activity [19]: 106%
Activity [20]: 103%

NS(=O)(=O)c1ccc(NC(=O)c2ccccc2NC(=O)c2ccco2)cc1
Activity [1]: 110.7%
Activity [2]: 87.71%
Activity [3]: 118.8%
Activity [4]: 98.87%
Activity [5]: 113.1%
Activity [6]: 115.3%
Activity [7]: 98%
Activity [8]: 103%
Activity [9]: 104%
Activity [10]: 95.39%
Activity [11]: 102%
Activity [12]: 111%
Activity [13]: 106%
Activity [14]: 106.3%
Activity [15]: 106%
Activity [16]: 114.6%
Activity [17]: 119.5%
Activity [18]: 115.5%
Activity [19]: 90.78%
Activity [20]: 109.7%

O=C(Nc1ccccc1C(=O)Nc1ccc(/C=C/C=C/c2ccccc2)cc1)c1ccccc1
Activity [1]: 90.58%
Activity [2]: 82.74%
Activity [3]: 78.99%
Activity [4]: 53.89%
Activity [5]: 83.75%
Activity [6]: 96.46%
Activity [8]: 104%
Activity [9]: 49.85%
Activity [10]: 62.47%
Activity [11]: 87.48%
Activity [12]: 86.19%
Activity [13]: 81.99%
Activity [14]: 91.49%
Activity [15]: 93.96%
Activity [16]: 84.69%
Activity [17]: 81.13%
Activity [18]: 94.36%
Activity [19]: 70.1%
Activity [20]: 84.74%
